{
  "source": "patent US5637619A",
  "about": "“Antitumor 2-aminocarbonyl-1, 2-bis(methylsulfonyl)-1-(substituted)hydrazines” (Yale University, priority 1995, dated 1997)",
  "key": {"M109 lung carcinoma": {"tested_on": "M109 lung carcinoma", "experiment": "M109 lung carcinoma, ip implanted", "format": "in vivo, BALB/c mice", "conditions": "50 mg/kg/injection, q4d × 3, ip, 10% DMSO in saline; highest dose tested", "method": "(§1) The M5076 reticulum cell sarcoma was passaged biweekly by sc transfer of tumor fragments into C57BL/6 mice, and the M109 lung carcinoma was similarly passaged in BALB/c mice. The LX-1 human lung carcinoma was passaged sc every two to three weeks in BALB/c-background athymic (nu/nu) mice. For use in these systems, compound III was dissolved in: (a) 100% DMSO and administered by iv injection in a fixed volume of 10 microliters; or (b) DMSO diluted with saline to a final concentration of 10% DMSO and administered iv in a volume of 0.01 milliliter/g of body weight. […] Mitomycin C and cyclophosphamide were dissolved and administered in saline. BCNU and MeCCNU were dissolved in ethanol and diluted 1:9 (v/v) with water prior to administration.\nFive mice per group were employed in experiments with the B16F10 melanoma, and 8 mice per group with the M5076 sarcoma, the M109 carcinoma and the LX-1 carcinoma. […] Therapeutic results are presented in terms of: (a) increases in lifespan reflected by the relative median survival time (MST) of treated versus control groups (i.e., %T/C values), and by long-term survivors, and (b) primary tumor growth inhibition (i.e., T-C values) determined by calculating the relative median times for treated (T) and control untreated (C) mice to grow tumors of a 0.5 g size for the LX-1 carcinoma or a 1 g size for the murine neoplasms. […]"}, "[1]": {"experiment": "Body weight change / toxicity in L1210-bearing mice", "format": "in vivo, mice (CD2F1)", "conditions": "for Av. Wt. Change %: L1210-bearing mice", "method": "Leukemia L1210 cells were obtained from the Frederick Cancer Research Facility, Division of Cancer Treatment Tumor Repository of the National Cancer Institute, and were maintained by serial passage in tissue culture. Every 8 weeks, tumor cells were injected intraperitoneally into five donor CD2 F1 mice 8- to 10- weeks of age and were allowed to grow for 7 days. The peritoneal fluid was withdrawn and the suspension was centrifuged for 5 min at 1600 g. The supernatant was decanted and 10^5 cells/mL were seeded into 10 mL of RPMI 1640 medium supplemented with 10% fetal bovine serum and 1% L-glutamine, and once again maintained in culture. To assay for antineoplastic activity, 0.1 mL of the cell suspension containing 10^5 L1210 leukemia cells was injected ip into each recipient mouse. Test compounds were administered over a wide range of dosage levels, beginning 24 h after tumor implantation, and continued once daily for 6 consecutive days. All drugs were administered ip as a solution in 100% dimethylsulfoxide (DMSO), in a volume not exceeding 0.025 mL. […] Mice were weighed during the course of the experiments, and the percentage change in body weight from onset to termination of therapy was used as an indication of drug toxicity. Determination of the sensitivity of neoplasms to these agents was based upon the prolongation of survival time afforded by the drug treatments.\n^a Administered ip once daily for six consecutive days, beginning 24 hours after tumor implantation, with 5-10 mice being used per group. ^b Average percent change in body weight from onset to termination of therapy. ^c % T/C=average survival time of treated/control mice×100; cures (>60-day survivors) are listed separately and are not included in this calculation."}, "[2]": {"tested_on": "M5076 reticulum cell sarcoma", "experiment": "M5076 reticulum cell sarcoma, sc implanted", "format": "in vivo, C57BL/6 mice", "conditions": "48 mg/kg/injection, q2d × 5, iv, 100% DMSO", "method": "as §1\n(§2) Five mice per group were employed in experiments with the B16F10 melanoma, and 8 mice per group with the M5076 sarcoma, the M109 carcinoma and the LX-1 carcinoma. A minimum of two dose levels per compound were included in each evaluation and drug therapy was initiated 24 h after tumor implantation for the M5076 sarcoma and M109 carcinoma. In the LX-1 experiment, tumor bearing mice were selected and sorted into treatment and control groups on day 6 post-tumor implant such that all tumor weights ranged from 50-100 mg and median tumor weights per group were reasonably similar. Therapeutic results are presented in terms of: (a) increases in lifespan reflected by the relative median survival time (MST) of treated versus control groups (i.e., %T/C values), and by long-term survivors, and (b) primary tumor growth inhibition (i.e., T-C values) determined by calculating the relative median times for treated (T) and control untreated (C) mice to grow tumors of a 0.5 g size for the LX-1 carcinoma or a 1 g size for the murine neoplasms. Tumor weights were interchangeable with tumor size on the basis of 1 mm^3 =1 mg. […] The activity criterion for tumor inhibition was a delay in tumor growth consistent with one log10 cell kill (LCK). The absolute T-C value needed to attain this level of efficacy varied from experiment to experiment and depended upon the tumor volume doubling time of the control mice in each study. Treated mice dying prior to day 10 in the ip M109 experiment, or dying before their tumors achieved 0.5 g for the LX-1 carcinoma or 1 g in size for all other sc tumor models, were considered to have died from drug toxicity. Groups of mice with more than one death due to drug toxicity were not used in the evaluation of antitumor efficacy. Statistical evaluations of data were performed using Gehan's generalized Wilcoxan test (Gehan, Biometrika, 1965, 52, 203-233).\nCompound III was also evaluated against the M5076 reticulum cell sarcoma implanted sc. When administered iv at a level of 48 mg/kg per injection in 100% DMSO every other day for five days, compound III cured 6 out of 8 mice and consequently, no median time (T-C value) to reach 1 gram size tumors was expressed for this group. Tumor growth in mice receiving only 100% DMSO was indistinguishable from that of untreated control animals. 1-(2-Chloroethyl)-3-(4-methylcyclohexyl)-1-nitrosourea (MeCCNU) and BCNU were included in this experiment for comparison. The former achieved a maximum %T/C of 128 and a delay in tumor growth of 33.5 days at 16 mg/kg per injection administered iv every fourth day for three total injections, while BCNU, administered iv on the same treatment schedule, produced a %T/C in excess of 157, with 2 out of 8 cures, and a T-C of >62 days (data not shown)."}, "B16F10 melanoma": {"tested_on": "B16F10 melanoma", "experiment": "B16F10 melanoma, tumor growth delay in mice", "format": "in vivo, C57BL/6 mice", "conditions": "100% DMSO", "method": "B16F10 melanoma cells were grown in vitro as monolayers in minimum essential medium with Hank's salts supplemented with 10% fetal bovine serum and 1% 200 mM L-glutamine solution. Solid tumors were produced in C57BL/6 female mice 12- to 14-weeks of age by the intradermal injection in the right flank of each mouse of 0.1 mL of a cell suspension containing 10^6 B16F10 cells/mL from freshly trypsinized cultures. After 10-12 days, animals bearing approximately 100 mm^3 tumors were treated ip with compound III or IV dissolved in 100% DMSO for 6 consecutive days, and tumor volumes were measured on alternate days until reaching 1000 mm^3.\nas §2\nIn addition, both compounds III and IV were evaluated in 100% DMSO against the B16F10 melanoma implanted intradermally (id) in mice (Table III). In an initial experiment, compound IV produced a T-C of 15.5 days at a daily dosage level of 20 mg/kg administered once daily for six consecutive days beginning on day 10 post-implant. In the same experiment, using the same treatment schedule, a growth delay of 11 days was obtained with compound III. […] Thus, the aminocarbonyl component in this class of agents influences the magnitude of the antitumor effects obtained against the B16F10 melanoma."}},
  "note": "Several values for one entry are separate records, joined by “and”; a condition that tells them apart may be missing. Equal entries are not always repeated.",
  "data": [
    {"smiles": "CS(=O)(=O)N(CCCl)N(C(=O)NCCCl)S(C)(=O)=O", "note": "[Compound III, 1,2-bis(methylsulfonyl)-1-(2-chloroethyl)-2-(2-chloroethyl)aminocarbonylhydrazine]", "values": [
      {"measurement": "%T/C (median survival time)", "setting": "M109 lung carcinoma", "result": 267, "unit": "%"},
      {"measurement": "Av. Wt. Change %", "setting": "[1]; 10 mg/kg ip once daily × 6", "result": -4.7, "unit": "%"},
      {"measurement": "Av. Wt. Change %", "setting": "[1]; 15 mg/kg ip once daily × 6", "result": -4.0, "unit": "%"},
      {"measurement": "Av. Wt. Change %", "setting": "[1]; 20 mg/kg ip once daily × 6", "result": -10.4, "unit": "%"},
      {"measurement": "loss in body weight", "setting": "[1]; 20 mg/kg × 6", "result": 10.4, "unit": "%"},
      {"measurement": "toxicity (in words)", "setting": "[1]; 20 mg/kg × 6", "result": "somewhat toxic"},
      {"measurement": "%T/C (median survival time)", "setting": "[2]", "result": "> 157", "unit": "%"},
      {"measurement": "Cures/Total", "setting": "[2]", "result": "6/8 and 6 out of 8"},
      {"measurement": "T-C, growth delay", "setting": "B16F10 melanoma; experiment a, 20 mg/kg/injection, qd × 6 from day 10, ip, 20 mg/kg", "result": "11 days and 11.0 days"},
      {"measurement": "T-C", "setting": "B16F10 melanoma; experiment b, 20 mg/kg/injection, qd × 6 from day 12, ip", "result": 5.5, "unit": "days"},
      {"measurement": "T-C, growth delay", "setting": "B16F10 melanoma; experiment b, 30 mg/kg/injection, qd × 6 from day 12, ip", "result": 13.5, "unit": "days"}
    ]}
  ]
}
